Test results: PubChem BioAssay AID1361 (SRMLSC, 2008)
Active and inactive are the calls of the source. The rule behind the calls is not given here.

Assay: mitochondrial fusion inhibitors, confirmation, cell-based, chemical genetic, wild-type and mutant (AID 1361)
Details: Cell-based mitochondrial fusion phenotype, imaging
[1] = mutant cells, measured here: mutant cell line IC50

SMILES	IC50 (WT cells)	IC50 [1] [µM]
CCOC(=O)CSc1n[nH]c(-c2cccnc2)n1	> 25 µM (inactive)	> 25
CC(C)=CCc1c(O)c(CC=C(C)C)c2c(c1O)C(=O)CC(c1ccc(O)cc1)O2 (configuration not stated)	10.7 µM	> 25
CCC(C)c1ccc(NC(=O)COc2c(F)c(F)c(C(F)(F)F)c(F)c2F)cc1 (configuration not stated)	8.03 µM	> 25
CCCCOC(=O)Nc1cccc(C(=O)OCC)c1	> 25 µM (inactive)	> 25
CCN(c1ccccc1)S(=O)(=O)c1cnc[nH]1	> 25 µM (inactive)	> 25
CC(NC(=S)NCCCN1CCOCC1)C1CC2CCC1C2 (configuration not stated)	> 25 µM (inactive)	> 25
CC1CC2(CCCC2)N(C(=O)c2ccccc2)Cc2ccccc21 (configuration not stated)	24.9 µM (inactive)	> 25
O=c1cc(-c2ccc(C3CCCCC3)cc2)[nH][nH]1	> 25 µM (inactive)	> 25
CC(C)Nc1nc(Oc2cccc(Cl)c2Cl)cc(C(F)(F)F)n1	23.6 µM	> 25
O=C(NCc1ccccc1Cl)c1cnccn1	> 25 µM (inactive)	> 25
CCCN(Cc1ccccc1)C(=S)Nc1ccc(SC(F)F)cc1	20.6 µM	> 25
CCOC(=O)c1sc2nc(CSc3ccccc3)nc(N3CCC(C(N)=O)CC3)c2c1C	> 25 µM (inactive)	> 25
Cc1ccc(Nc2nc(N)c([N+](=O)[O-])c(NCc3ccco3)n2)cc1C	15.5 µM	> 25
O=C(CCSc1ccc(Cl)cc1)NC12CC3CC(CC(C3)C1)C2	13.1 µM	> 25
O=C(NCC1(c2ccccc2)CCCC1)C1(c2ccccc2)CCCC1	16.8 µM	> 25
Cc1ccc(-n2cccc2C(=S)N=P(N(C)C)(N(C)C)N(C)C)cc1	9.32 µM	> 25
Cc1cc(C)c2nc(C(F)(F)F)nc(N3CC(C)OC(C)C3)c2c1 (configuration not stated)	> 25 µM (inactive)	> 25
CNc1oc(C)nc1S(=O)(=O)c1ccc(C)cc1	> 25 µM (inactive)	> 25
CCOC(=O)c1cc(-c2ccc3c(c2)OCO3)nc2onc(C)c12	> 25 µM (inactive)	> 25
COC(=O)c1c(NC(=O)CN2CCC3(O)CCCCC3C2c2ccc(OC)cc2OC)sc(C)c1C (configuration not stated)	14.9 µM	> 25
Oc1ccc(/C=N/Nc2nc(N3CCCCCC3)nc(N3CCCCCC3)n2)c(O)c1	9.5 µM	> 25

SMILES	IC50 (WT cells)	IC50 [1] [µM]
Cc1ccc(S(=O)(=O)NCc2ccco2)c(C)c1C	> 25 µM (inactive)	> 25
O=C(CNC(=S)N(Cc1ccccc1)Cc1ccccc1F)NCc1ccccc1	17.7 µM	> 25
CCC(C)(C)c1ccc(Oc2ccc(N)cc2)cc1	> 25 µM (inactive)	> 25
CC(C)C(=O)Nc1ccc(C(=O)NNC(=O)CCCOc2ccc(Cl)cc2Cl)cc1	> 25 µM (inactive)	> 25
O=C(Oc1cccnc1)c1ccc(Cl)c(Cl)c1	> 25 µM (inactive)	> 25
CCOc1ccccc1NC(C)C(=O)Nc1cc(C(F)(F)F)ccc1N1CCOCC1 (configuration not stated)	19 µM	22.2
Cc1nnc(SCC(=O)N2c3ccccc3C(C)(c3ccc(Cl)cc3)CC2(C)C)s1 (configuration not stated)	5.21 µM	> 25
CCn1c(CNC(=O)c2ccco2)nnc1SCC(=O)Nc1cc(C(F)(F)F)ccc1Cl	> 25 µM (inactive)	> 25
O=C(N/C=N/OCc1ccc(Cl)cc1Cl)NOCc1ncc(C(F)(F)F)cc1Cl	16 µM	> 25
CCCC[C@@H]1C[C@H]1[C@@H](NC(=O)c1cccs1)c1ccc(Cl)cc1	9.76 µM	> 25
CCCCCc1nc2sc3c(c2c(=O)n1NC(=O)c1ccc([N+](=O)[O-])cc1)CC(C)(C)OC3	15.5 µM	> 25
CCc1cccc(CC)c1NC(=S)NCCc1c(C)[nH]c2ccc(C)cc12	9.59 µM	> 25
CCC1CCCCN1c1cc(C)nc2cc(-c3cccc(C)c3)nn12 (configuration not stated)	13.1 µM	> 25
CC(C)C(c1nnnn1C(C)(C)C)N1CCC(Cc2ccccc2)CC1 (configuration not stated)	12.1 µM	> 25
Cc1cc(Cl)ccc1OC(C)C(=O)Nc1ccccc1N1CCOCC1 (configuration not stated)	21.1 µM	> 25
CCC1Oc2ccc(C)cc2N(CC(=O)N(Cc2ccc(C)o2)C2CCCC2)C1=O (configuration not stated)	> 25 µM (inactive)	> 25
Oc1ccc2ccccc2c1/C=N/c1nc2c(s1)CCCC2	> 25 µM (inactive)	> 25
CCOc1ccc(Br)cc1C1C(C(=O)OC)=C(N)Oc2cc(N(C)C)ccc21 (configuration not stated)	11.7 µM	> 25
CCC1Oc2ccc(C)cc2N(CC(=O)NCCCN2CCCCC2CC)C1=O (configuration not stated)	> 25 µM (inactive)	> 25
CCCCNC(=O)C1CCN(S(=O)(=O)c2cnc[nH]2)CC1	> 25 µM (inactive)	> 25

The remaining lines, values ahead:

IC50 (WT cells)	IC50 [1] [µM]	SMILES
> 25 µM (inactive)	> 25	COc1ccccc1CN=Cc1[nH]c2ccc(Br)c(Cl)c2c1O
24.1 µM	> 25	Cc1cc(Nc2nc(Cl)c(Cl)cc2Cl)n(-c2ccccc2)n1
> 25 µM (inactive)	> 25	COc1ccc(NC(=O)c2oc3ccccc3c2NC(=O)COc2ccccc2OC)c(OC)c1
9.01 µM	> 25	COc1ccccc1/C=C\C=N\n1c(-c2ccc(Cl)cc2Cl)n[nH]c1=S
15.4 µM	> 25	COc1ccccc1N1CCN(C(=O)c2ccc(CSc3ccccc3)cc2)CC1
14.9 µM	> 25	CCCCCC(O)c1cccc(OCc2ccc3ccccc3n2)c1 (configuration not stated)
13.5 µM	> 25	Cc1sc(NC(=O)c2ccccc2)c(C(c2ccc(Cl)cc2)N2CCN(CCO)CC2)c1C (configuration not stated)
8.28 µM	> 25	Cc1nn(C(C)(C)C)c(OC(=O)c2ccc3c(c2)OCO3)c1Sc1ccccc1
13.7 µM	> 25	O=C(c1cc(-c2ccccc2)nc2ccccc12)N1CCCc2ccccc21
9.56 µM	15.3	CN(C)c1ncc(S(=O)(=O)c2ccc(Cl)cc2)c(-c2ccc(Cl)cc2Cl)n1
> 25 µM (inactive)	> 25	CC(C)/C(=N/Nc1ccccc1[N+](=O)[O-])c1ccccc1
17.3 µM	> 25	CCC(C(=O)OCC(=O)Nc1ccccc1-c1ccccc1)c1ccccc1 (configuration not stated)
18.7 µM	> 25	Cc1ccc(CC2SC(=Nc3ccccc3)N(c3ccccc3)C2=O)cc1 (configuration not stated)
9.52 µM	> 25	Cc1ccc(-c2csc3ncnc(N4CCc5ccccc5C4)c23)cc1
10.8 µM	> 25	COc1ccccc1C(=O)NC(=S)/C=C1/N(C)c2ccccc2C1(C)C
10 µM	> 25	Clc1ccc(-c2csc3ncnc(N4CCc5ccccc5C4)c23)cc1
8.8 µM	> 25	COc1ccc(NC(=S)N(CCc2c(C)[nH]c3ccc(C)cc23)Cc2ccco2)cc1
24 µM	> 25	CC(=O)N(Cc1ccc(F)cc1)C1=C(NCCc2ccccc2)C(=O)c2ccccc2C1=O
10.3 µM	> 25	COc1ccc(Cn2nc(-c3ccccc3)c(N3CCCCC3)cc2=O)cc1
> 25 µM (inactive)	> 25	COc1ccc(-c2noc(-c3ccccc3-c3ccccc3)n2)cc1OC
